US11464770B2, “Anticancer pharmaceutical composition” (NATIONAL CANCER CENTER, priority 2016, dated 2022)
Read-outs that look alike come from different tables or passages of the source.

Columns and labels:
[1] = test system: cervical carcinoma cell lines; assay: Cell based assay, cell viability (CellTiter-Glo), cervical carcinoma cell lines; conditions: Homo sapiens; HeLa cells
Method: (§1) Commercially available bladder cancer, prostate cancer, lung cancer, breast cancer, blood cancer, pancreatic cancer, colorectal cancer, brain cancer, neuroblastoma, melanoma, liver cancer, cervical carcinoma, ovarian cancer, renal cancer, and papilloma cell lines were each treated with trypsin-EDTA and cultured, followed by being seeded in each well of a 96 well plate. […] The treated cells were additionally cultured for 72 hours, and cell viability was measured by using an ATP detection method (CellTiter-Glo® Luminescent Cell Viability Assay, Promega).

[2] = test system: RT4: human urinary bladder transitional cell papilloma; assay: Cell based assay, cytotoxicity in RT4 papilloma cells (selectivity); conditions: Homo sapiens, RT-4; RT4 cells
Method: as §1

[3] = test system: lung cancer cell lines (e.g. NCI-H23, NCI-H1229); assay: Cell based assay, cell viability (CellTiter-Glo), lung cancer cell lines; conditions: Homo sapiens, 72 hours treatment, CellTiter-Glo
Method: (§2) Commercially available bladder cancer, prostate cancer, lung cancer, breast cancer, blood cancer, pancreatic cancer, colorectal cancer, brain cancer, neuroblastoma, melanoma, liver cancer, cervical carcinoma, ovarian cancer, renal cancer, and papilloma cell lines were each treated with trypsin-EDTA and cultured, followed by being seeded in each well of a 96 well plate. After 24 hours of treatment at constant temperature, the respective cells were treated with the candidate compound so that a final concentration became 0 to 2 μM. The treated cells were additionally cultured for 72 hours, and cell viability was measured by using an ATP detection method (CellTiter-Glo® Luminescent Cell Viability Assay, Promega).

[4] = test system: ovarian cancer cell lines; assay: Cell based assay, cell viability (CellTiter-Glo), ovarian cancer cell lines; conditions: Homo sapiens; OVCAR-3 cells
Method: as §2

[5] = A549 cells, read-out: IC50, lung cancer cell line A549
[6] = DMS 114 cells, read-out: IC50, lung cancer cell line DMS 114
[7] = NCI-H23 cells, read-out: IC50, lung cancer cell line NCI-H23
[8] = NCI-H460 cells, read-out: IC50, lung cancer cell line NCI-H460
[9] = NCI-H522 cells, read-out: IC50, lung cancer cell line NCI-H522
[10] = NCI-H1299 cells, read-out: IC50, lung cancer cell line NCI-H1299
[11] = NCI-H1437 cells, read-out: IC50, lung cancer cell line NCI-H1437

Row | IC50 [1] [nM] | IC50 [3, 5] [nM] | IC50 [3, 6] [nM] | IC50 [3, 7] [nM] | IC50 [3, 8] [nM] | IC50 [3, 9] [nM] | IC50 [3, 10] [nM] | IC50 [3, 11] [nM] | IC50 [4] [nM] | SMILES | IC50 [2] [nM] | IC50 ([3]; MRC-5 cells, read-out: IC50) [nM]
1 | > 10000 | > 2000 | > 2000 | > 2000 | > 2000 | > 2000 | > 2000 | > 10000 | > 2000 | CC(=O)c1c(SCc2ccccc2)nc2c(Br)ccc(Cl)c2c1O [Compound 52, 1-(2-(benzylthio)-8-bromo-5-chloro-4-hydroxyquinolin-3-yl)ethan-1-one] | > 10000 | > 2000
2 | > 10000 | > 2000 | > 2000 | > 2000 | > 2000 | > 2000 | > 2000 | > 10000 | > 2000 | CC(=O)c1c(S(=O)(=O)Cc2ccccc2)nc2c(Br)ccc(Cl)c2c1O [Compound 54, 1-(2-(benzylsulfonyl)-8-bromo-5-chloro-4-hydroxyquinolin-3-yl)ethan-1-one] | > 10000 | > 2000
3 | > 10000 | > 2000 | > 2000 | 800 | > 2000 | 1940 | 1150 | > 10000 | 700 | CC(=O)c1c([S+]([O-])Cc2ccccc2C#N)[nH]c2c(Br)ccc(Cl)c2c1=O (stereo not drawn) [Compound 58, 2-(((3-acetyl-8-bromo-5-chloro-4-oxo-1,4-dihydroquinolin-2-yl)sulfinyl)methyl)benzonitrile] | > 10000 | 760
4 | > 10000 | > 2000 | > 2000 | > 2000 | > 2000 | > 2000 | > 2000 | > 10000 | > 2000 | COCSc1[nH]c2c(Br)ccc(Cl)c2c(=O)c1C(C)=O [Compound 61, 3-acetyl-8-bromo-5-chloro-2-((methoxymethyl)thio)quinolin-4(1H)-one] | > 10000 | > 2000
5 | > 10000 | > 2000 | > 2000 | > 2000 | > 2000 | > 2000 | > 2000 | > 10000 | > 2000 | CC(=O)c1c(S)[nH]c2c(Br)ccc(Cl)c2c1=O [Compound 62, 3-acetyl-8-bromo-5-chloro-2-mercaptoquinolin-4(1H)-one] | > 10000 | > 2000
6 | > 10000 | > 2000 | > 2000 | 1700 | > 2000 | > 2000 | > 2000 | > 10000 | > 2000 | CC(=O)c1c([S+]([O-])Cc2ccc(C(=O)c3ccccc3)cc2)[nH]c2c(Br)ccc(Cl)c2c1=O (stereo not drawn) [Compound 63, 3-acetyl-2-((4-benzoylbenzyl)sulfinyl)-8-bromo-5-chloroquinolin-4(1H)-one] | > 10000 | > 2000
7 | > 10000 | > 2000 | > 2000 | > 2000 | > 2000 | > 2000 | > 2000 | > 10000 | > 2000 | CC(=O)c1c([S+]([O-])CC#N)[nH]c2c(Br)ccc(Cl)c2c1=O (stereo not drawn) [Compound 65, 2-((3-acetyl-8-bromo-5-chloro-4-oxo-1,4-dihydroquinolin-2-yl)sulfinyl)acetonitrile] | > 10000 | > 2000
8 | > 10000 | > 2000 | > 2000 | > 2000 | > 2000 | > 2000 | > 2000 | > 10000 | > 2000 | CC(=O)c1c(SCC#N)[nH]c2c(Br)ccc(Cl)c2c1=O [Compound 66, 2-((3-acetyl-8-bromo-5-chloro-4-oxo-1,4-dihydroquinolin-2-yl)thio)acetonitrile] | > 10000 | > 2000
9 | > 10000 | > 2000 | > 2000 | > 2000 | > 2000 | > 2000 | > 2000 | > 10000 | > 2000 | CC(=O)c1c(S/C=C\C(=O)O)[nH]c2c(Br)ccc(Cl)c2c1=O [Compound 67, (Z)-3-((3-acetyl-8-bromo-5-chloro-4-oxo-1,4-dihydroquinolin-2-yl)thio)acrylic acid] | > 10000 | > 2000
10 | > 2000 | 1380 | > 2000 | 770 | 1410 | > 2000 | 1240 | > 10000 | 1160 | CC(=O)c1c([S+]([O-])Cc2ccc(S(F)(F)(F)(F)F)cc2)[nH]c2c(Br)ccc(Cl)c2c1=O (stereo not drawn) [Compound 68, 3-acetyl-8-bromo-5-chloro-2-((4-(pentafluoro-16-sulfanyl)benzyl)sulfinyl)quinolin-4(1H)-one] | > 10000 | 950
11 | > 10000 | 1780 | > 2000 | 1130 | 1620 | > 2000 | 1310 | > 10000 | 1130 | CC(=O)c1c([S+]([O-])Cc2ccc(S(F)(F)(F)(F)F)cc2F)[nH]c2c(Br)ccc(Cl)c2c1=O (stereo not drawn) [Compound 69, 3-acetyl-8-bromo-5-chloro-2-((2-fluoro-4-(pentafluoro-16-sulfanyl)benzyl)sulfinyl)quinolin-4(1H)-one] | > 10000 | 1050
12 | > 10000 | 1840 | > 2000 | 960 | 1510 | > 2000 | 1320 | > 10000 | 1130 | CC(=O)c1c([S+]([O-])Cc2cccc(S(F)(F)(F)(F)F)c2)[nH]c2c(Br)ccc(Cl)c2c1=O (stereo not drawn) [Compound 77, 3-acetyl-8-bromo-5-chloro-2-((3-(pentafluoro--sulfanyl)benzyl)sulfinyl)quinolin-4(1H)-one] | > 10000 | 1060
13 | > 10000 | > 2000 | > 2000 | > 2000 | > 2000 | > 2000 | > 2000 | > 10000 | > 2000 | CC(=O)c1c([S+]([O-])Cc2ccc(SC(F)(F)F)cc2)[nH]c2c(Cl)ccc(Cl)c2c1=O (stereo not drawn) [Compound 79, 3-acetyl-5,8-dichloro-2-((4-((trifluoromethyl)thio)benzyl)sulfinyl)quinolin-4(1H)-one] | > 10000 | > 2000
14 | > 10000 | > 2000 | > 2000 | > 2000 | > 2000 | > 2000 | > 2000 | > 10000 | > 2000 | CC(=O)c1c([S+]([O-])Cc2ccc(S(F)(F)(F)(F)F)cc2)[nH]c2c(F)ccc(F)c2c1=O (stereo not drawn) [Compound 80, 3-acetyl-5,8-difluoro-2-((4-(pentafluoro--sulfanyl)benzyl)sulfinyl)quinolin-4(1H)-one] | > 10000 | > 2000
15 | > 10000 | > 2000 | > 2000 | > 2000 | > 2000 | > 2000 | > 2000 | > 10000 | > 2000 | CC(=O)c1c([S+]([O-])Cc2ccc(C(F)(F)F)o2)[nH]c2c(F)ccc(F)c2c1=O (stereo not drawn) [Compound 81, 3-acetyl-5,8-difluoro-2-(((5-(trifluoromethyl)furan-2-yl)methyl)sulfinyl)quinolin-4(1H)-one] | > 10000 | > 2000
16 | > 10000 | > 2000 | > 2000 | > 2000 | > 2000 | > 2000 | > 2000 | > 10000 | > 2000 | CC(=O)c1c([S+]([O-])Cc2cc(C)on2)[nH]c2c(F)ccc(F)c2c1=O (stereo not drawn) [Compound 82, 3-acetyl-5,8-difluoro-2-(((5-methylisoxazol-3-yl)methyl)sulfinyl)quinolin-4(1H)-one] | > 10000 | > 2000
17 | > 10000 | > 2000 | > 2000 | > 2000 | > 2000 | > 2000 | > 2000 | > 10000 | > 2000 | CC(C)C(=O)c1c([S+]([O-])Cc2ccc(SC(F)(F)F)cc2)[nH]c2c(F)ccc(F)c2c1=O (stereo not drawn) [Compound 85, 5,8-difluoro-3-isobutyryl-2-((4-((trifluoromethyl)thio)benzyl)sulfinyl)quinolin-4(1H)-one] | > 10000 | > 2000

Row | SMILES | IC50 [1] [nM] | IC50 [3, 5] [nM] | IC50 [3, 6] [nM] | IC50 [3, 7] [nM] | IC50 [3, 8] [nM] | IC50 [3, 9] [nM] | IC50 [3, 10] [nM] | IC50 [3, 11] [nM] | IC50 [4] [nM] | IC50 [2] [nM] | IC50 ([3]; MRC-5 cells, read-out: IC50) [nM]
18 | CC(=O)c1c([S+]([O-])Cc2ccccc2)nc2c(Br)ccc(Cl)c2c1O (stereo not drawn) [Compound 53, 1-(2-(benzylsulfinyl)-8-bromo-5-chloro-4-hydroxyquinolin-3-yl)ethan-1-one] | > 10000 | > 2000 | > 2000 | > 2000 | > 2000 | > 2000 | > 2000 | > 10000 | > 2000 | > 10000 | > 2000
